From patent publication US20060165827A1, “Anti diarrhoea compositions” (Loders Croklaan USA LLC, priority 2002, published 2006)

Columns and labels:
growing piglets = assay: Growth, food intake and food conversion of weaned piglets on supplemented feed; format: in vivo, pig
Source text: (§1) Evaluate the effect of supplementation with shea sterols on growth and post-weaning diarrhoea of growing piglets.
(§2) One day before the start of the experiment the pigs are weighed. The piglets are distributed over the different treatment groups with the aim to establish group equality in weight, sex. Piglets smaller than 5 kg or piglets with physical disturbances are excluded from the study.
(§3) At a mean age of 27 days the pigs are weaned and randomly assigned to the 3 experimental groups and are then treated for 35 days. Pigs are fed ad libitum. The first 14 days post weaning the pigs are fed a prestarter diet. Subsequently, the piglets are changed in a period of 3 days to a starter diet. Throughout the 35 day study period the food is supplemented with either:
(§4) 1. without antimicrobial growth enhancers
(§5) 2. with antimicrobial growth enhancers (AMGB: 40 ppm avilamycine)
(§6) 3. with shea oleine (0.4%)
(§7) The shea oleine contained 8 wt % sterols and pentacyclic terpenes. The shea oleine was obtained by fractionation of the extract from shea nuts into a stearine and oleine fraction, followed by partial bleaching and deodorising.
Piglets were weighed at the start of the experiment, at 14 days and at day 34.

[1] = tested on: post-weaning diarrhoea of growing piglets; assay: Incidence of post-weaning diarrhoea in weaned piglets on supplemented feed; format: in vivo, pig
Source text: as §1, §2, §3, §4, §5, §6, §7

[2] = from weaning till 14 days post weaning
[3] = from weaning till 14 days post weaning, p < 0.001

avilamycine [AMGB]
EW-conversion (growing piglets; from day 1 till day 34): 1.64 | EW-intake per day (growing piglets; from day 1 till day 34): 0.57 | food conversion (growing piglets; from day 1 till day 34): 1.49 | food intake (growing piglets; from day 1 till day 34): 0.52 kg/day | growth rate (growing piglets; from day 1 till day 34): 352 g/day | weight (growing piglets; from day 1 till day 34): 20.9 kg | EW-conversion (growing piglets; from day 15 till day 34): 1.70 | EW-intake per day (growing piglets; from day 15 till day 34): 0.79 | food conversion (growing piglets; from day 15 till day 34): 1.55 | food intake (growing piglets; from day 15 till day 34): 0.72 kg/day | growth rate (growing piglets; from day 15 till day 34): 468 g/day | weight (growing piglets; from day 15 till day 34): 10.5 kg | EW-conversion (growing piglets; [2]): 1.43 | food conversion (growing piglets; [2]): 1.28 | growth rate (growing piglets; [2]): 185 g/day | EW-intake per day (growing piglets; [3]): 0.26 | food intake (growing piglets; [3]): 0.23 kg/day | weight at weaning (growing piglets; piglets, at weaning (start of experiment)): 7.7 kg | Incidence of diarrhoea: no diarrhoea ([1]; First week post-weaning): 81.2% | Incidence of diarrhoea: past (paste-like) diarrhoea ([1]; First week post-weaning): 17.6% | Incidence of diarrhoea: watery diarrhoea ([1]; First week post-weaning): 1.2% | Incidence of diarrhoea: past (paste-like) diarrhoea ([1]; Second week post-weaning): 9.5% | Incidence of diarrhoea: watery diarrhoea ([1]; Second week post-weaning): 0.2% | Incidence of diarrhoea: no diarrhoea ([1]; Second week post-weaning, p < 0.1): 90.3% | Incidence of diarrhoea: past (paste-like) diarrhoea ([1]; Third week post-weaning): 9.0% | Incidence of diarrhoea: watery diarrhoea ([1]; Third week post-weaning): 0.5% | Incidence of diarrhoea: no diarrhoea ([1]; Third week post-weaning, p < 0.01): 90.5% | number of animals required treatment ([1]; veterinary treatment during the study): 23
